Earlier results as cited in patent US20150164065A1, “ORGAN ARREST, PROTECTION, PRESERVATION AND RECOVERY” (priority 2002, published 2015).

Tests used:
[1] = tested on: isolated brain slices
[2] = biological target: T1, NK(3) receptor (Homo sapiens, UniProt P29371); details: relative to NK(1) receptor
T1 sequence (P29371 1-465): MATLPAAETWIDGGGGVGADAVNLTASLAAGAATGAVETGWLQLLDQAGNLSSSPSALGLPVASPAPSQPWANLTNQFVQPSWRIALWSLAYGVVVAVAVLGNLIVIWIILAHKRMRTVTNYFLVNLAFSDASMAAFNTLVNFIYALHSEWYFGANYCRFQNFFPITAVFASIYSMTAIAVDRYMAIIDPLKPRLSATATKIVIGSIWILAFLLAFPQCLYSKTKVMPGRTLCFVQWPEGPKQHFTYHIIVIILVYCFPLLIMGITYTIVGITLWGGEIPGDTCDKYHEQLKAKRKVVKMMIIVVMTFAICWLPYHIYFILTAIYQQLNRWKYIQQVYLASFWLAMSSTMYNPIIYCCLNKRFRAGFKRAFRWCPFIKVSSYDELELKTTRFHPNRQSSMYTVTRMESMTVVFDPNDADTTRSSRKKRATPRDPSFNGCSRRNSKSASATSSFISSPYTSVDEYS

[3] = biological target: T2, NK(2) receptor (Homo sapiens, UniProt P21452); details: relative to NK(1) receptor
T2 sequence (P21452 1-398): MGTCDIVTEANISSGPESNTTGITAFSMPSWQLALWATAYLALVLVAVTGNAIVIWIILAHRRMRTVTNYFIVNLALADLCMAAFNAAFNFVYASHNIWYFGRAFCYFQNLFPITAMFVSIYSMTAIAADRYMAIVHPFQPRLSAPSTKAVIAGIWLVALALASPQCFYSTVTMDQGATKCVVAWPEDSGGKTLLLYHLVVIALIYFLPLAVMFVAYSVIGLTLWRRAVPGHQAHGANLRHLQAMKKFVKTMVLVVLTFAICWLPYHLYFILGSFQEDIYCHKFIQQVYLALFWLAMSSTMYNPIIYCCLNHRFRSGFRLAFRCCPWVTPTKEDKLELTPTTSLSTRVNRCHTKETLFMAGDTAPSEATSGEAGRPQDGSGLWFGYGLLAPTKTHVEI

[4] = biological target: human NK(1) receptor (Homo sapiens, UniProt P25103)
Chain of human NK(1) receptor (P25103 whole entry): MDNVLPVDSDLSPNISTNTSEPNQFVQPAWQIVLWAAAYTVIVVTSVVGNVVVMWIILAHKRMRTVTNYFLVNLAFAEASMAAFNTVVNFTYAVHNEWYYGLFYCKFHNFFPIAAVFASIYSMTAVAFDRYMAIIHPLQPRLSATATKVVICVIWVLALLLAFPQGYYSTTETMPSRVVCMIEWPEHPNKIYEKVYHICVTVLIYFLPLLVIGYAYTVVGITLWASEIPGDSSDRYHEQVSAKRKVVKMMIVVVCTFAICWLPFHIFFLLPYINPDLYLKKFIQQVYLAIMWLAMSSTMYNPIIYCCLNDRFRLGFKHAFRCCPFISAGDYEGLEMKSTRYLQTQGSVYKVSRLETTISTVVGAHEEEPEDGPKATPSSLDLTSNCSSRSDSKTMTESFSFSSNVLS

| selectivity toward NK(3) receptor [2] | selectivity toward NK(2) receptor [3] | Ki [4] [pM] | Compound | ischemia-induced cell swelling [1] |
| --- | --- | --- | --- | --- |
|  |  |  | CC1(C)CC(O)CC(C)(C)N1[O] [tempol(R)] | reduction of cell swelling |
| over 200 fold | over 200 fold | 450 | Cc1cccc(C)c1NC(=O)C[C@H]1CCN(C(=O)c2cc(C(F)(F)F)cc(C(F)(F)F)c2)[C@@H](Cc2ccccc2)C1.O=C(O)C[C@H](O)C(=O)O (relative stereo) [Example R116301, (2R-trans)-4-[1-[3,5-bis(trifluoromethyl)benzoyl]-2-(phenylmethyl)-4-piperidinyl]-N-(2,6-dimethylphenyl)-1-acetamide (S)-Hydroxybutanedioate] |  |
|  |  |  | Cc1c(C)c2c(c(C)c1O)CC[C@](C)(C(=O)O)O2 [Trolox(R)] | reduction of cell swelling |
|  |  |  | CNC(=S)NC [dimethylthiourea] | reduction of cell swelling |
